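Test compounds were applied to cells in 96-well plates for 48 hours at 5 doses. GI50 marks 50% less growth.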 Active and inactive are the calls of the source. No stated cut-off is given here; in the data, active = GI50 up to about 1.1 µM and inactive = higher. Numbered stars: 1 amine (or outer) side, 2 acyl side, 3 side chain; on linkers, the order of the positions; unused ones are H or OH. Bridge positions count the residues as written; N and C are the ends. Square brackets hold non-standard residues; d marks the D form. Peptide text beside a SMILES is read from it. * marks the point of attachment. ξ: configuration not given here. X33 = O=C(C(CCCCNO[*:3])N[*:1])[*:2]; Fmoc = O=C(OCC1c2ccccc2-c2ccccc21)*; ξW = NC(Cc1c[nH]c2ccccc12)C(=O)O; ξP = O=C(O)C1CCCN1
How the values were obtained:
Assay in all cases: NCI-60 cell line screen, 48 h
HCT-15 = test system: HCT-15
Malme-3M = test system: Malme-3M
MOLT-4 = test system: MOLT-4
HL-60 = test system: HL-60
SW-620 = test system: SW-620
PC-3 = test system: PC-3
EKVX = test system: EKVX
OVCAR-5 = test system: OVCAR-5
OVCAR-3 = test system: OVCAR-3
DU-145 = test system: DU-145
NCI-H460 = test system: NCI-H460
786-0 = test system: 786-0
U-251 = test system: U-251
HT-29 = test system: HT-29
MDA-N = test system: MDA-N
SN12C = test system: SN12C
Hs-578T = test system: Hs-578T
HOP-62 = test system: HOP-62

| SMILES | GI50 (HCT-15) [µM] | GI50 (Malme-3M) | GI50 (MOLT-4) | GI50 (HL-60) | GI50 (SW-620) | GI50 (PC-3) | GI50 (EKVX) | GI50 (OVCAR-5) | GI50 (OVCAR-3) | GI50 (DU-145) | GI50 (NCI-H460) | GI50 (786-0) | GI50 (U-251) | GI50 (HT-29) | GI50 (MDA-N) | GI50 (SN12C) | GI50 (Hs-578T) | GI50 (HOP-62) |
| --- | --- | --- | --- | --- | --- | --- | --- | --- | --- | --- | --- | --- | --- | --- | --- | --- | --- | --- |
| CCOC(=O)c1ccc(-c2cc(C)no2)[nH]1 | 30.2 | > 100 µM (inactive) | 42.1 µM (inactive) | 67.5 µM (inactive) | 45.3 µM (inactive) | 83.8 µM (inactive) | 41.7 µM (inactive) | > 100 µM (inactive) | 81.8 µM (inactive) | > 100 µM (inactive) | 33.8 µM (inactive) | > 100 µM (inactive) | 98.4 µM (inactive) | > 100 µM (inactive) | 22 µM (inactive) | 33 µM (inactive) |  |  |
| CCc1n[nH]c(=O)n1CCCCCCCCn1c(CC)n[nH]c1=O | > 100 | > 100 µM (inactive) | > 100 µM (inactive) |  | > 100 µM (inactive) | > 100 µM (inactive) | > 100 µM (inactive) | > 100 µM (inactive) | > 100 µM (inactive) |  | > 100 µM (inactive) | > 100 µM (inactive) | > 100 µM (inactive) | > 100 µM (inactive) | > 100 µM (inactive) | > 100 µM (inactive) | > 100 µM (inactive) | > 100 µM (inactive) |
| N#CC(c1ccccc1)c1cccc2ccccc12 (configuration not stated) | 37.9 | 21.5 µM (inactive) | 17.5 µM (inactive) | 21.1 µM (inactive) | 38.4 µM (inactive) | 22.5 µM (inactive) | 37.8 µM (inactive) | 85.1 µM (inactive) | 29.9 µM (inactive) | 50.5 µM (inactive) | 35.8 µM (inactive) | 69.5 µM (inactive) | 48.9 µM (inactive) | 43.2 µM (inactive) |  | 68.4 µM (inactive) | 36.7 µM (inactive) | 90.2 µM (inactive) |
| Cn1c(C(C#N)c2cc(Cl)ncn2)nc2ccccc21 (configuration not stated) | > 100 | > 100 µM (inactive) | > 100 µM (inactive) |  | > 100 µM (inactive) |  | > 100 µM (inactive) | > 100 µM (inactive) | > 100 µM (inactive) | > 100 µM (inactive) | > 100 µM (inactive) | > 100 µM (inactive) | > 100 µM (inactive) | > 100 µM (inactive) | > 100 µM (inactive) | > 100 µM (inactive) |  | > 100 µM (inactive) |
| Nn1c(SCC(=O)NCc2ccccc2)nc2ccccc2c1=O | 67.8 | 51.2 µM (inactive) | 19.1 µM (inactive) |  | 57 µM (inactive) | 54.7 µM (inactive) | 64.3 µM (inactive) | > 100 µM (inactive) | 32.3 µM (inactive) | 65 µM (inactive) | 46.3 µM (inactive) | 55.6 µM (inactive) | 88.9 µM (inactive) | 45.4 µM (inactive) | 38.9 µM (inactive) | > 100 µM (inactive) | 57.5 µM (inactive) |  |
| O=C1Nc2cccc3cc(NCC(O)CCl)cc1c23 (configuration not stated) | 48.9 | 88.1 µM (inactive) | 22.8 µM (inactive) | > 100 µM (inactive) | 40.5 µM (inactive) | 38.8 µM (inactive) | 32.5 µM (inactive) | > 100 µM (inactive) | 51.4 µM (inactive) | 97.5 µM (inactive) | > 100 µM (inactive) | 55 µM (inactive) | 32.9 µM (inactive) | 58.7 µM (inactive) |  | 41.8 µM (inactive) | 38 µM (inactive) | 49.9 µM (inactive) |
| COc1cc(/C=C2\C[C@H]3[C@@H]4CCc5cc(OCCN6CCCC6)ccc5[C@H]4CC[C@]3(C)C2=O)cc(OC)c1OC | 1.68 |  | 1.31 µM (inactive) |  | 1.91 µM (inactive) | 1.73 µM (inactive) | 2.39 µM (inactive) | 1.67 µM (inactive) |  | 1.87 µM (inactive) | 1.76 µM (inactive) | 1.85 µM (inactive) |  |  | 1.67 µM (inactive) | 1.72 µM (inactive) |  | 1.77 µM (inactive) |
| O=C(Nn1c(-c2ccccc2)nc2ccccc2c1=O)c1ccccn1 |  | > 100 µM (inactive) | > 100 µM (inactive) | 71.4 µM (inactive) | > 100 µM (inactive) | > 100 µM (inactive) | > 100 µM (inactive) |  | 79.3 µM (inactive) | > 100 µM (inactive) | > 100 µM (inactive) | > 100 µM (inactive) | 75.7 µM (inactive) | 65.3 µM (inactive) |  | > 100 µM (inactive) | 27.5 µM (inactive) | > 100 µM (inactive) |
| CCn1c(=O)c2nc(SC)sc2n(-c2ccccc2)c1=O | > 100 | > 100 µM (inactive) | > 100 µM (inactive) | > 100 µM (inactive) | > 100 µM (inactive) | > 100 µM (inactive) |  | > 100 µM (inactive) | > 100 µM (inactive) | > 100 µM (inactive) | > 100 µM (inactive) | > 100 µM (inactive) | > 100 µM (inactive) | > 100 µM (inactive) | > 100 µM (inactive) | > 100 µM (inactive) |  | > 100 µM (inactive) |
| O=C(O)CN1C=C(C(=O)c2cc3ccccc3n2S(=O)(=O)c2ccccc2)CCC1 | 49.2 | 28.4 µM (inactive) | 38.5 µM (inactive) | 32.2 µM (inactive) | 69.2 µM (inactive) | 50.4 µM (inactive) | 54.8 µM (inactive) | > 100 µM (inactive) | 51.9 µM (inactive) | > 100 µM (inactive) | 96.2 µM (inactive) | 50.7 µM (inactive) | 76.7 µM (inactive) | 50 µM (inactive) |  |  | 81.3 µM (inactive) | > 100 µM (inactive) |
| O=C(NNC(=O)c1ccccc1O)c1ccccc1O | 0.11 | 0.0393 µM (active) | 0.0385 µM (active) | 0.0528 µM (active) | 0.108 µM (active) |  | 1.17 µM (inactive) | 0.5 µM (active) | 0.258 µM (active) | 0.0445 µM (active) | 0.15 µM (active) | 0.141 µM (active) | 0.116 µM (active) | 6.71 µM (inactive) | 0.0247 µM (active) | 0.0792 µM (active) | 0.0149 µM (active) | 2.31 µM (inactive) |
| CCC[C@H]1C(=O)N=C(N)N1C(=O)OCc1ccccc1 | > 100 | > 100 µM (inactive) | > 100 µM (inactive) | > 100 µM (inactive) | > 100 µM (inactive) | > 100 µM (inactive) | > 100 µM (inactive) | > 100 µM (inactive) | > 100 µM (inactive) |  | > 100 µM (inactive) | > 100 µM (inactive) | > 100 µM (inactive) | > 100 µM (inactive) | > 100 µM (inactive) | > 100 µM (inactive) | > 100 µM (inactive) | > 100 µM (inactive) |
| NC(=O)CNC(=O)C1CCCN1C(=O)C1CCCCNOC(=O)CC[C@@H](NC(=O)OCC2c3ccccc3-c3ccccc32)C(=O)NC(Cc2c[nH]c3ccccc23)C(=O)N1 (some centres not stated) (Fmoc-[dE][ξW][X33][ξP]G-NH2; ester 1-3) | > 100 | > 100 µM (inactive) | > 100 µM (inactive) | > 100 µM (inactive) | > 100 µM (inactive) | > 100 µM (inactive) | > 100 µM (inactive) | 63.5 µM (inactive) | > 100 µM (inactive) | > 100 µM (inactive) | > 100 µM (inactive) | > 100 µM (inactive) | > 100 µM (inactive) | > 100 µM (inactive) |  | > 100 µM (inactive) | > 100 µM (inactive) | > 100 µM (inactive) |
